The values that follow come from patent US20050159312A1, “Tryptophan aminotransferase, indole-3-pyruvate decarboxylase and indole-3-acetaldehyde oxidase as novel targets for herbicides” (priority 2002, published 2005).

Test [1] has as its system indole-3-acetic acid (IEA) synthesis reaction. Briefly: Enzyme assay for inhibitors of indole-3-acetic acid (IEA, auxin) biosynthesis, enzyme extract from plant shoots. It counts as biochemical, Chenopodium album. Here is the method:
To obtain the enzyme extract, 2 g of frozen plant shoots of Chenopodium album (common lambsquarters), which had been comminuted in a pestle and mortar under liquid nitrogen, were defrosted at room temperature in 3 ml of 100 mM EPPS extraction buffer (5 mM dithiothreitol, 6 μM pyridoxal phosphate, 10 μM leupeptin, 10 μM Pefabloc SC, pH 8.5) together with a spatula-tipfull of polyvinyl pyrrolidone in the course of 30 minutes with gentle stirring. Thereafter, the plant material was centrifuged for 10 minutes at 4° C. and the supernatant was desalinified on a Sephadex G-25 column (preequilibrated with 5 mM EPPS elution buffer (1 mM dithiothreitol, 6 μM pyridoxal phosphate, 10 μM Pefabloc SC, pH 8.5). The resulting enzyme extract (400 μl) was incubated in the test assay (volume 600 μl) for 2 hours at 37° C. in the presence of 20 μM pyridoxal phosphate, 80 mM EPPS extraction buffer, 50 μM L-tryptophan, 50 μM α-ketoglutarate and 50 μM indole with addition of 100 μl of EPPS extraction buffer and 6 μl of active ingredient solution (10 mM compound I in DMSO). The control without compound I was treated with the corresponding amount of DMSO. The reaction was subsequently stopped by addition of 20 μl 7.2N HCl and 3 ml of ethyl acetate. The control assays without incubation were placed on ice and immediately treated with HCl and ethyl acetate. After reextraction with 3 ml of ethyl acetate, the organic phases (6 ml) are combined and concentrated under a nitrogen stream, and the samples are methylated with diazomethane. […] Thereafter, the amount of IEA-Me was determined immunoanalytically by means of monoclonal antibodies (100% reactivity to IEA-Me); (method of Weiler E. W., Eberle J., Mertens R., Atzorn R., Feyerabend M., Jourdan P. S., Arnscheidt A., Wieczorek U., in: Immunology in Plant Science (Wang T. L., Ed.), Society for Experimental Biology, Seminar Series 29, Cambridge University Press, Cambridge, 1986, pp. 27-58) and used as measurement for the enzyme activities.

The next test has as its system Chenopodium album. As to the kind of experiment: Greenhouse herbicidal activity, post-emergence. As to conditions: 1.0 kg a.s./ha. It counts as in vivo. The text has this: (§1) The culture containers used were plastic pots comprising loamy sand with approximately 3.0% humus as substrate. The seeds of the test plants were sown separately for each species. For the post-emergence treatment, the test plants were first grown to a plant height of from 3 to 15 cm, depending on the plant habit, and only then treated with the active ingredients which had been suspended or emulsified in water. To this end, the test plants were either sown directly and grown in the same containers, or they were first grown separately as seedlings and transplanted into the test containers a few days prior to treatment. […] Depending on the species, the plants were kept at from 10-25° C. or 20-35° C., respectively. The test period extended over 2 to 4 weeks. During this time, the plants were attended, and their response to the individual treatments was evaluated. Evaluation was carried out using a scale of from 0 to 100. 100 means no emergence of the plants, or complete destruction of at least the aerial parts, while 0 means no damage, or normal course of growth. The plants used in the greenhouse experiments belong to the following species: [table]

In a further test the test system is Echinocloa crus-galli. As to the kind of experiment: Greenhouse herbicidal activity, post-emergence. The format is in vivo. As to conditions: 1.0 kg a.s./ha.
Text: as §1

For another test, the system named is Pharbitis purpurea. Briefly: Greenhouse herbicidal activity, post-emergence. The format is in vivo. As to conditions: 1.0 kg a.s./ha.
Text: as §1

On to `CNC(=O)C(CNC(=O)c1ccccc1F)NC(=O)c1ccc(C(F)(F)F)cc1F` (stereo not drawn) [compound I], for which the “pMol IEA-Me/g fresh shoot weight” value in test [1] (100 μM compound I, incubation 2 hours at 37° C., mean from three measurements) was 156.0 +/− 14.8 pMol IEA-Me/g fresh shoot weight. The “Inhibition [%]” value in test [1] (100 μM compound I, incubation 2 hours at 37° C., control value without incubation subtracted) came to 73%. The “synthesis of indole-3-acetic acid from L-tryptophan” value in test [1] (in vitro) was “inhibited”. Besides, the herbicidal efficiency entry in the test with Chenopodium album, in the test on Echinocloa crus-galli and with Pharbitis purpurea was “very good herbicidal efficiency” throughout.
